From ChEMBL document CHEMBL1201862, “PubChem BioAssay data set” (2004)
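Test compounds were applied to cells in 96-well plates for 48 hours at 5 doses. The concentration for 50% growth inhibition is given as GI50.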 Active and inactive are the calls of the source. Cut-off read from the data, not from the text of the source: active = GI50 up to about 1.1 µM and inactive = higher. Positions of bridges follow the written chain, without caps; N, C: chain ends. Non-standard residues stand in square brackets, D forms with d. Residues, ends and D or L forms follow the SMILES beside them. Aib = CC(C)(N)C(=O)O; βAla = NCCC(=O)O

Assays:
Assay in all cases: growth of human tumour cells (NCI), 48 h
MDA-N = system: MDA-N
SK-MEL-5 = system: SK-MEL-5
HT-29 = system: HT-29
786-0 = system: 786-0
U-251 = system: U-251
SNB-19 = system: SNB-19
Hs-578T = system: Hs-578T
UACC-62 = system: UACC-62
MOLT-4 = system: MOLT-4
OVCAR-3 = system: OVCAR-3
MDA-MB-435 = system: MDA-MB-435
HCT-116 = system: HCT-116
IGROV-1 = system: IGROV-1
HCT-15 = system: HCT-15
MDA-MB-231 = system: MDA-MB-231
HCC 2998 = system: HCC 2998
NCI-H522 = system: NCI-H522
SR = system: SR

SMILES | GI50 (MDA-N) | GI50 (SK-MEL-5) | GI50 (HT-29) | GI50 (786-0) | GI50 (U-251) | GI50 (SNB-19) | GI50 (Hs-578T) | GI50 (UACC-62) | GI50 (MOLT-4) | GI50 (OVCAR-3) | GI50 (MDA-MB-435) | GI50 (HCT-116) | GI50 (IGROV-1) | GI50 (HCT-15) | GI50 (MDA-MB-231) | GI50 (HCC 2998) | GI50 (NCI-H522) | GI50 (SR)
CC1C2(C)OCC(C#N)(C(=N)O2)C1(C#N)C#N (centres undefined) | 18.3 µM (inactive) | 11.3 µM (inactive) | 15.8 µM (inactive) | 21.3 µM (inactive) | 16.3 µM (inactive) | 43.5 µM (inactive) | 17.9 µM (inactive) | 24.9 µM (inactive) | 27.3 µM (inactive) | 15.1 µM (inactive) | 28.6 µM (inactive) | 18.3 µM (inactive) | 33 µM (inactive) | 13.5 µM | 17.9 µM (inactive) | > 10 µM (inactive) |  | 
CCCc1cc(COC)c(C#N)c(O)n1 | > 100 µM (inactive) | > 100 µM (inactive) | > 100 µM (inactive) | > 100 µM (inactive) | > 100 µM (inactive) | > 100 µM (inactive) | > 100 µM (inactive) | > 100 µM (inactive) | > 100 µM (inactive) | > 100 µM (inactive) | > 100 µM (inactive) | > 100 µM (inactive) | > 100 µM (inactive) | > 100 µM | > 100 µM (inactive) | > 100 µM (inactive) | > 100 µM (inactive) | 
CCC1([N+](=O)[O-])CC2C=CC1C2 (centres undefined) | > 100 µM (inactive) | > 100 µM (inactive) | > 100 µM (inactive) | > 100 µM (inactive) | > 100 µM (inactive) | > 100 µM (inactive) | > 100 µM (inactive) | > 100 µM (inactive) | > 100 µM (inactive) | > 100 µM (inactive) | > 100 µM (inactive) | > 100 µM (inactive) | > 100 µM (inactive) | > 100 µM | > 100 µM (inactive) |  | > 100 µM (inactive) | > 100 µM (inactive)
COc1ccc(CCCNC(=O)Cc2cc(OC)c(OC)cc2CO)cc1OC | > 100 µM (inactive) | > 100 µM (inactive) | > 100 µM (inactive) | > 100 µM (inactive) | > 100 µM (inactive) | > 100 µM (inactive) | > 100 µM (inactive) | > 100 µM (inactive) | > 100 µM (inactive) | > 100 µM (inactive) | > 100 µM (inactive) | > 100 µM (inactive) | > 100 µM (inactive) | > 100 µM | > 100 µM (inactive) | > 100 µM (inactive) |  | > 100 µM (inactive)
CCOP(=O)(Nc1ccc(-c2ccccc2)cc1)OCC | 88.9 µM (inactive) | 90.2 µM (inactive) | 75.7 µM (inactive) | > 100 µM (inactive) | > 100 µM (inactive) | > 100 µM (inactive) | > 100 µM (inactive) | > 100 µM (inactive) | 36.4 µM (inactive) | 49.9 µM (inactive) | 91.6 µM (inactive) | > 100 µM (inactive) | 71.3 µM (inactive) | > 100 µM | > 100 µM (inactive) | > 100 µM (inactive) | 33.8 µM (inactive) | 
CC(C)NC(=O)OCCN=C1c2ccccc2C(Br)C(Br)c2ccccc21 (centres undefined) | 5.85 µM (inactive) | 7.19 µM (inactive) | 4.7 µM (inactive) | 4.14 µM (inactive) | 10 µM (inactive) | 16.1 µM (inactive) | 8.41 µM (inactive) | 10.1 µM (inactive) | 6.19 µM (inactive) | 12.1 µM (inactive) | 7.96 µM (inactive) | 7.01 µM (inactive) | 2.66 µM (inactive) | 9.75 µM | 11.5 µM (inactive) | 22.7 µM (inactive) | 1.68 µM (inactive) | 
Cc1coc2c1C(OC(=O)C(C)C)C1(C)C(C)CCC(O)C1C2=O (centres undefined) | > 100 µM (inactive) | > 100 µM (inactive) | > 100 µM (inactive) | > 100 µM (inactive) | > 100 µM (inactive) |  | > 100 µM (inactive) | > 100 µM (inactive) | 93.1 µM (inactive) | > 100 µM (inactive) | > 100 µM (inactive) | > 100 µM (inactive) | > 100 µM (inactive) | > 100 µM | > 100 µM (inactive) | > 91.4 µM (inactive) | 67.1 µM (inactive) | 51.2 µM (inactive)
Cc1ccc(S(=O)(=O)N2CCSCCSCCSCCN(S(=O)(=O)c3ccc(C)cc3)CC2)cc1 | > 100 µM (inactive) | > 100 µM (inactive) | > 100 µM (inactive) | > 100 µM (inactive) | > 100 µM (inactive) | > 100 µM (inactive) | > 100 µM (inactive) | > 100 µM (inactive) | > 100 µM (inactive) | > 100 µM (inactive) | > 100 µM (inactive) | > 100 µM (inactive) | > 100 µM (inactive) |  | > 100 µM (inactive) | > 100 µM (inactive) |  | 
CCOC(=O)c1nc2c3c(ncn2n1)Oc1c(c(-c2ccccc2)nn1-c1ccccc1)C3c1ccc(OC)c(OC)c1 (centres undefined) | > 100 µM (inactive) | 78.9 µM (inactive) | > 100 µM (inactive) | 31 µM (inactive) | 31.3 µM (inactive) | 24.3 µM (inactive) | 12.4 µM (inactive) | 48.6 µM (inactive) | > 100 µM (inactive) | > 100 µM (inactive) | > 100 µM (inactive) | 65.2 µM (inactive) | 52.1 µM (inactive) | > 100 µM | 37.2 µM (inactive) | > 100 µM (inactive) | > 100 µM (inactive) | 51.8 µM (inactive)
O=S(=O)(CCC[C@H]1[C@@H](CCOCc2ccccc2)C2CCCN1O2)c1ccccc1 (some centres undefined) | > 100 µM (inactive) | 43.3 µM (inactive) | > 100 µM (inactive) | > 100 µM (inactive) | > 100 µM (inactive) | > 100 µM (inactive) | > 100 µM (inactive) | > 100 µM (inactive) | 65.3 µM (inactive) | > 100 µM (inactive) | > 100 µM (inactive) | > 100 µM (inactive) | > 100 µM (inactive) | > 100 µM | > 100 µM (inactive) | > 100 µM (inactive) | > 100 µM (inactive) | > 100 µM (inactive)
C/C(=N/c1[nH]c(=O)cc2c1C(=O)CC2)N(C)C | > 200 µM (inactive) | > 200 µM (inactive) | > 200 µM (inactive) | > 200 µM (inactive) | > 200 µM (inactive) | > 200 µM (inactive) | > 200 µM (inactive) | > 200 µM (inactive) | > 200 µM (inactive) | > 200 µM (inactive) | > 200 µM (inactive) | > 200 µM (inactive) | > 200 µM (inactive) | > 200 µM | > 200 µM (inactive) | > 200 µM (inactive) | > 200 µM (inactive) | 
Cc1ccc(NC(=O)/C(Cc2nc3ccc([N+](=O)[O-])cc3nc2O)=N\NC(=O)C[n+]2ccccc2)c(C)c1 | > 100 µM (inactive) | 16.9 µM (inactive) | > 100 µM (inactive) | 27.9 µM (inactive) | 53.6 µM (inactive) | 83.4 µM (inactive) | 86.1 µM (inactive) | 55.1 µM (inactive) | 30.7 µM (inactive) | 23.1 µM (inactive) | 97.3 µM (inactive) | 36.2 µM (inactive) | 35.4 µM (inactive) | 49.4 µM | 18.4 µM (inactive) | > 100 µM (inactive) | 19.4 µM (inactive) | 
Cc1nnc(N)nc1/C=C\c1ccc(N(C)C)cc1 | 17.4 µM (inactive) | 18.5 µM (inactive) | 8.83 µM (inactive) | > 26.7 µM (inactive) | > 27.1 µM (inactive) | 15.2 µM (inactive) | 5.82 µM (inactive) | 4.27 µM (inactive) | 17.6 µM (inactive) |  | 6.27 µM (inactive) | 10.8 µM (inactive) | 37.5 µM (inactive) | 2.99 µM |  | 3.78 µM (inactive) | 1.68 µM (inactive) | 6.24 µM (inactive)
CC(C)(C)C1CCC2c3c([nH]c4ccccc34)C3C(=O)N(c4ccccc4[N+](=O)[O-])C(=O)C3C2C1 (centres undefined) | 13.2 µM (inactive) | 13.5 µM (inactive) | 4.32 µM (inactive) | 12.7 µM (inactive) | 16 µM (inactive) | 19.3 µM (inactive) | 14.4 µM (inactive) | 12.2 µM (inactive) | > 10 µM (inactive) | 13 µM (inactive) | 19.1 µM (inactive) | 7.48 µM (inactive) | 16.7 µM (inactive) | 11.2 µM | 10.6 µM (inactive) | 4.14 µM (inactive) |  | 9.64 µM (inactive)
CC(C)[C@@H]1NC(=O)[C@@H]2N=C(O[C@H]2C)[C@H](C(C)C)NC(=O)C2N=C1O[C@H]2C | > 100 µM (inactive) | > 100 µM (inactive) | > 100 µM (inactive) | > 100 µM (inactive) |  | > 100 µM (inactive) | > 100 µM (inactive) | > 100 µM (inactive) | > 100 µM (inactive) | > 100 µM (inactive) | > 100 µM (inactive) | > 100 µM (inactive) | > 100 µM (inactive) | > 100 µM | > 100 µM (inactive) | > 100 µM (inactive) | > 100 µM (inactive) | > 100 µM (inactive)
CC1(C)NC(=O)C(NC(=O)C(N)CC(=O)O)CCCCNC(=O)CCNC1=O (centres undefined) (H-DK[Aib][βAla]; lactam 2-C; configuration not given here) | > 100 µM (inactive) | > 100 µM (inactive) | > 100 µM (inactive) | > 100 µM (inactive) | > 100 µM (inactive) | > 100 µM (inactive) | > 100 µM (inactive) | > 100 µM (inactive) | > 100 µM (inactive) | > 100 µM (inactive) | > 100 µM (inactive) | > 100 µM (inactive) | > 100 µM (inactive) | > 100 µM | > 100 µM (inactive) |  | > 100 µM (inactive) | 
